Reference: US20120157401A1, “METHODS FOR TREATING NEUROFIBROMATOSIS” (PTC Therapeutics, Inc., priority 2009, published 2012)
Like-named read-outs stand apart in the source and are kept apart here. Marks after values point to notes of the source that are not given here.

How the values were obtained:
[1] = test system: HT1080 cells; experiment: Cell cycle analysis by propidium iodide flow cytometry in HT1080 cells (percent cells in S-phase, Table 24); assay type: cell-based, human; settings: for % Cells In S-Phase: HT1080 cells, 100 nM, 18 hours, normoxic, DMSO control […]
Method: Experimental Design. […] After treatment, cells were trypsinized, and stained with propidium iodide (PI) dye to measure DNA content of individual cells by flow cytometry. Output comprised histograms showing relative DNA content in 10,000 cells.
While compounds which cause greater than 20% of the cells to accumulate in S-phase at 100 nM are considered active, a larger percentage of cells may be accumulated in S-phase at lower doses depending on the Compound, as shown in FIG. 12 for example.

[2] = test system: human VEGF121 and VEGF165; experiment: HT1080 xenograft time course: pathologic plasma human VEGF; assay type: in vivo; settings: by Day 1
Method: (§1) Experimental Design. HT1080 cells (5×10^6 cells/mouse) were implanted subcutaneously in male athymic nude mice.
Tumor size was measured by calipers immediately pre-treatment and at the time of sacrifice on Day 1, 2, or 3 (5 mice per group per day). At sacrifice, the plasma was collected for assay of pathologic human VEGF concentration using an ELISA that recognizes human VEGF121 and VEGF165 (as described in Section 9.1.1.1).

[3] = test system: HT1080 xenografts; experiment: BrdU labeling of cells from HT1080 xenografts grown in nude mice; assay type: in vivo, athymic nude mice; settings: Day 1, 2, 3; Compound #10 10 mg/kg oral QD, doxorubicin 6 mg/kg IP, bevacizumab 5 mg/kg IP
Method: as §1
The mice were sacrificed 3 hours later, and the tumors collected. A single cell suspension was prepared from the tumor cells. The cells were permeabilized and an antibody to BrdU was used to stain cells that had entered S phase during the labeling period. The proportion of cells actively synthesizing DNA was determined by cell sorting.

[4] = test system: hypoxia-inducible endogenous VEGF expression; experiment: Hypoxia-inducible endogenous VEGF expression ELISA in HeLa cells, dose-response EC50 (Table 3); assay type: cell-based, human; settings: Homo sapiens
Procedure, shortened: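 HeLa cells kept 24-48 h under hypoxia (1% O2, 5% CO2, nitrogen balance) with or without compound, e.g. seven concentrations; secreted VEGF in conditioned medium quantified by ELISA against a standard curve. Parallel Cell Titer Glo viability under identical conditions excludes cytotoxicity.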

[5] = test system: IL-6; experiment: Patients: serum and plasma IL-6 levels; assay type: in vivo, human
Method: Subjects with NF2 may receive continuous daily treatment with a Compound administered at 100 mg per dose, 2 times a day (BID) for up to 1 year, or longer as appropriate, or until tumor progression. […] Tumor shrinkage or an improvement in hearing are indicators of efficacy.
Anti-angiogenic activity: Assessing VEGF concentrations provides a relevant and convenient mechanism-specific marker of Compound activity. […] For example, clinically validated ELISA kits (e.g., from R&D Systems, Minneapolis, Minn.) may be used to measure concentrations of VEGF, VEGF-C, P1GF, VEGFR, and inflammatory mediators such as IL-6 and IL-8. CT scan and MRI scan may also be used to assess peritumoral inflammation or edema.
Blood for VEGF, VEGFR, and Cytokines. Two blood samples (1 for plasma and 1 for serum) may be obtained for assessment of VEGF, VEGFR, and cytokine levels.
After processing, samples may be placed into a freezer at approximately −70° C. An ELISA-based multiplex system may be used to measure plasma VEGF and cytokine levels.

[6] = test system: human VEGF121 and VEGF165; experiment: HT1080 xenograft studies #21/#23: intra-tumor and pathologic plasma human VEGF (Compound 1205); assay type: in vivo; settings: for Mean difference in human plasma VEGF (%) on Day 14 / Mean difference in human tumor VEGF (%) at Day 14: 14 days
Text: Experimental Design. HT1080 cells (5×10^6 cells/mice) were implanted subcutaneously into male athymic nude mice. Treatment with vehicle alone or Compound 1205 was initiated when the median tumor volume was approximately 311±88 mm^3. Table 7 and Table 9 (study design #21 and #23) provide the study design for assessing tumor and plasma pathologic VEGF concentrations—each group in each study included eight (8) mice. When the tumors in vehicle-treated mice had reached the target size of ˜1200 mm^3 for study #21 and ˜1500 mm^3 for study #23, all mice in the study were sacrificed, and excised tumors were homogenized in buffer containing protease inhibitors. Both intra-tumor and pathologic plasma human VEGF levels were measured using an ELISA that recognizes human VEGF121 and VEGF165. Intra-tumor VEGF levels were normalized to the total tumor protein concentration and pathologic plasma VEGF levels were expressed in pg/mL. Because smaller tumors produce less VEGF per mg of tumor protein, intra-tumor VEGF levels were normalized to tumor size.

[7] = test system: HT1080 tumor cells in vivo; experiment: HT1080 xenograft studies of Compound 1205, Compound #10 and Compound 1330: tumor growth; set-up: species or system athymic nude mice
Text: Experimental Design. HT1080 cells (5×10^6 cells/mouse) were implanted subcutaneously in male athymic nude mice. […] For comparison, Compound #10 was included in this study.

[8] = test system: T47D xenografts; experiment: T47D estrogen-sensitive breast cancer xenograft: tumor growth; settings: 10 mg/kg oral QD
Method: Experimental Design. Estrogen pellets (0.72 mg/pellet) were implanted 30 days prior to cell implantation and again 60 days later. T47D estrogen-sensitive breast cancer cells (5×10^6 cells/mouse mixed 1:1 with […] ™) were implanted subcutaneously in female athymic nude mice. […] Tamoxifen was included as a positive control.
Tumor size was measured by calipers at periodic intervals. After 74 days of treatment, the mice were sacrificed.

[9] = test system: soluble VEGF121 and VEGF165 isoforms; experiment: VEGF inhibition EC50 by ELISA in the same human tumor cell lines (Table 25); assay type: cell-based; settings: tumor cells; data not shown
Method: Results. […] The conditioned media were collected and assayed by ELISA for soluble VEGF121 and VEGF165 isoforms (as described in Section 9.1.1.1); results were calculated as percentage inhibition relative to vehicle treated controls. EC50 values were calculated from the concentration response curves.

[10] = HeLa cells, hypoxic conditions (1% O2), 24-48 hours, VEGF in conditioned media, read-out: ELISA EC50

O=C(Oc1ccc(F)cc1)N1CCc2c([nH]c3ccc(Cl)cc23)[C@@H]1c1ccc(OCC[C@H](O)CO)cc1 [drawing 537]
% Cells In S-Phase [1]: 20.6%

C=CCOc1ccc([C@@H]2c3[nH]c4ccc(Cl)cc4c3CCN2C(=O)Oc2ccc(Cl)cc2)cc1
% Cells In S-Phase [1]: 17.9%

O=C(Oc1ccc(Cl)cc1)N1CCc2c([nH]c3ccc(Cl)cc23)C1c1ccc(OCCN2CCOCC2)cc1 (centres unmarked) [drawing 535]
% Cells In S-Phase [1]: 16.4%

O=C(Oc1ccc(F)cc1)N1CCc2c([nH]c3ccc(Cl)cc23)[C@@H]1c1ccc(OCCCn2ccnn2)cc1
% Cells In S-Phase [1]: 25.7%

COc1ccc([C@H]2c3[nH]c4ccc(Cl)cc4c3CCN2C(=O)Oc2ccc(Cl)cc2)cc1 [drawing 526]
% Cells In S-Phase [1]: 26.1%

COc1ccc(OC(=O)N2CCc3c([nH]c4ccc(Br)cc34)[C@@H]2c2ccc(Cl)cc2)cc1 [drawing 527]
% Cells In S-Phase [1]: 26.4%

COc1cccc2c1C(=O)c1c(O)c3c(c(O)c1C2=O)C[C@@](O)(C(=O)CO)C[C@@H]3O[C@H]1C[C@H](N)[C@H](O)[C@H](C)O1 [doxorubicin, reference compound]
Pathologic plasma human VEGF levels vs control animals [2]: numerically lower than in control animals | BrdU staining of tumor cells (proportion of cells in S phase) [3]: decreased the percentage of tumor cells staining with BrdU

O=C(Oc1ccc(Cl)cc1)N1CCc2c([nH]c3ccc(Cl)cc23)C1c1ccc(OCCN2CCCCC2)cc1 (centres unmarked)
% Cells In S-Phase [1]: 16.8%

C=CCOc1ccc([C@H]2c3[nH]c4ccc(Cl)cc4c3CCN2C(=O)Oc2ccc(Cl)cc2)cc1 [drawing 533]
% Cells In S-Phase [1]: 17.2%

COc1ccc([C@H]2c3[nH]c4ccc(Cl)cc4c3CCN2C(=O)Oc2ccc(Cl)cc2)cc1 [#10]
EC50 [4, 10]: < 0.008 µM | Serum IL-6 levels in patients (FIG. 37) [5]: reduced

O=C(Oc1ccc(Cl)cc1)N1CCc2c([nH]c3ccc(Cl)cc23)[C@@H]1c1ccc(OCC[C@H](O)CO)cc1 [Compound 1205]
EC50 [4, 10]: < 0.008 µM | Inhibition of pathologic plasma human VEGF levels ([6]; 0.5 or 3 mg/kg QD): more than 95% | Inhibition of tumor human VEGF levels ([6]; 0.5 or 3 mg/kg QD): more than 95% | Mean difference in human plasma VEGF (%) on Day 14 ([6]; Study #21, 0.5 mg/kg QD): 97%** | Mean difference in human tumor VEGF (%) at Day 14 ([6]; Study #21, 0.5 mg/kg QD): 95%** | Mean difference in human plasma VEGF (%) on Day 14 ([6]; Study #21, 3 mg/kg QD): 99% | Mean difference in human tumor VEGF (%) at Day 14 ([6]; Study #21, 3 mg/kg QD): 98%** | Mean difference in human plasma VEGF (%) on Day 14 ([6]; Study #23, 1 mg/kg QD): 100%** | Mean difference in human tumor VEGF (%) at Day 14 ([6]; Study #23, 1 mg/kg QD): 95** % | Lowest dose at which active on tumor growth ([7]; HT1080 xenografts, QD): 0.3 mg/kg | Mean difference in tumor growth rate at the Day that the vehicle-treated tumors taken off study ([7]; Study 21, 0.5 mg/kg QD, Day 14): 61%** | Final mean terminal tumor size in treatment group ([7]; Study 21, 0.5 mg/kg QD, PD, 14 days): 580 mm^3 | Mean difference in tumor growth rate at the Day that the vehicle-treated tumors taken off study ([7]; Study 21, 3 mg/kg QD, Day 14): 80%** | Final mean terminal tumor size in treatment group ([7]; Study 21, 3 mg/kg QD, PD, 14 days): 379 mm^3 | Difference vs. vehicle in median number of days to reach 1000 mm^3 ([7]; Study 22, 0.5 mg/kg QD): 11 days | Mean difference in tumor growth rate at the Day that the vehicle-treated tumors taken off study ([7]; Study 22, 0.5 mg/kg QD, Day 11): 62%** | Final mean terminal tumor size in treatment group ([7]; Study 22, 0.5 mg/kg QD, Xeno): 1750 mm^3 | Difference vs. vehicle in median number of days to reach 1000 mm^3 ([7]; Study 22, 3 mg/kg QD): 14** Days | Mean difference in tumor growth rate at the Day that the vehicle-treated tumors taken off study ([7]; Study 22, 3 mg/kg QD, Day 11): 75%** | Final mean terminal tumor size in treatment group ([7]; Study 22, 3 mg/kg QD, Xeno): 1840 mm^3 | Mean difference in tumor growth rate at the Day that the vehicle-treated tumors taken off study ([7]; Study 23, 1 mg/kg QD, Day 14): 59%** | Final mean terminal tumor size in treatment group ([7]; Study 23, 1 mg/kg QD, PD, 14 days): 710 mm^3 | Difference vs. vehicle in median number of days to reach 1000 mm^3 ([7]; Study 24a, 10 mg/kg QD): 14** Days | Mean difference in tumor growth rate at the Day that the vehicle-treated tumors taken off study ([7]; Study 24a, 10 mg/kg QD, Day 11): 76%** | Final mean terminal tumor size in treatment group ([7]; Study 24a, 10 mg/kg QD, Xeno): 1400 mm^3 | Difference vs. vehicle in median number of days to reach 1000 mm^3 ([7]; Study 24b, 0.3 mg/kg QD): 0.7 days | Mean difference in tumor growth rate at the Day that the vehicle-treated tumors taken off study ([7]; Study 24b, 0.3 mg/kg QD, Day 15): 28% | Final mean terminal tumor size in treatment group ([7]; Study 24b, 0.3 mg/kg QD, Xeno): 1540 mm^3

COc1ccc(C2c3[nH]c4ccc(Cl)cc4c3CCN2C(=O)Oc2ccc(Cl)cc2)cc1 (centres unmarked)
% Cells In S-Phase [1]: 15.3%

COc1ccc(OC(=O)N2CCc3c([nH]c4ccc(Br)cc34)[C@H]2c2ccc(Cl)cc2)cc1
% Cells In S-Phase [1]: 16.5%

O=C(Oc1ccc(F)cc1)N1CCc2c([nH]c3ccc(Cl)cc23)[C@H]1c1ccc(OCCCn2ccnn2)cc1
% Cells In S-Phase [1]: 16.4%

O=C(Oc1ccc(Cl)cc1)N1CCc2c([nH]c3ccc(Cl)cc23)[C@H]1c1ccc(OCC[C@H](O)CO)cc1 [drawing 538]
% Cells In S-Phase [1]: 17%

CC/C(=C(\c1ccccc1)c1ccc(OCCN(C)C)cc1)c1ccccc1 [Tamoxifen, tamoxifen, reference compound]
Mean % Inhibition of Tumor Size vs Vehicle at Day 74 [8]: 50%

O=C(Oc1ccc(Cl)cc1)N1CCc2c([nH]c3ccc(Cl)cc23)[C@@H]1c1ccc(OCC[C@H](O)CO)cc1 [drawing 529]
% Cells In S-Phase [1]: 20.0%

COc1ccc([C@@H]2c3[nH]c4ccc(Cl)cc4c3CCN2C(=O)Oc2ccc(Cl)cc2)cc1
% Cells In S-Phase [1]: 16.8%

NC(Cn1ccc(=O)c(O)c1)C(=O)O (centres unmarked) [mimosine, reference compound]
Effect on the cell cycle ([1]; tumor cells, data not shown): does not delay or prolong the cell cycle | Effect on VEGF production [9]: does not delay or prolong the cell cycle or reduce VEGF production

CC1(C)C(=O)NC(=O)N1CCCOc1ccc(C2c3[nH]c4ccc(Cl)cc4c3CCN2C(=O)Oc2ccc(Cl)cc2)cc1 (centres unmarked) [Compound 1671]
EC50 ([4]; HeLa, read-out: ELISA EC50 μM): < 0.008 µM
